# Legend:
# [1] = Mean arterial blood pressure in AAC model; type: in vivo, mouse; conditions: intervention mode; 6 weeks post-AAC surgery
# Procedure: Blood pressure was recorded in anaesthetised mice via intra-arterial cannulation of a carotid artery 6 weeks post-AAC surgery, using a Microtip pressure catheter (Millar instruments). Mice were placed in a supine position on a pre-warmed heating mat (46° C.), and a midline incision made extending the length of the neck with surgical scissors. The large salivary glands were gently moved laterally, and a single carotid artery was located for cannulation. The carotid artery was blunt dissected to remove visceral fats, and then ligated with surgical suture at its most rostral and caudal ends, leaving a space of roughly 2 mm in between. A small incision was made between the two ties using fine dissection spring-tip scissors, and a microtip pressure catheter was inserted into the artery. The region of the artery housing the catheter was tied in place, and the caudal tie loosened to allow blood flow into the pressure catheter. Mice were allowed to recover for 5 min, or until the blood pressure trace steadied. MABP was then averaged across a 30 s period using MATLAB analysis. All efforts were made to ensure mouse body temperature, and levels of anaesthesia in particular, remained constant between animals.
# [2] = test system: mouse cardiac endothelial cells; test: RNA-Seq of cardiac endothelial cells treated with ldCil; type: cell-based
# Procedure: Primary mouse endothelial cells were isolated from the whole hearts of C57/BL6 3-7 day old mice. Hearts were removed, mechanically minced with scissors, and digested in pre-heated (37° C.) 10 ml 0.1% collagenase type I solution (Gibco Invitrogen) for 1 h. Usually 3 hearts were minced together for a single prep. The collagenase reaction was stopped by adding equal parts mouse lung endothelial cell (MLEC) media, and the digested tissue was homogenised in a dish by syringing up to 30 times with a 19 and 21-gauge needle, and then passed through a 70 μm pore-size cell strainer. Cells were centrifuged at 1500 rpm for 3 min, pellet was suspended and then incubated in a solution containing magnetic beads conjugated to a CD31 antibody (BD Pharmingen) to separate primary cardiac endothelial cells from the total cell population. Sorted cells were plated in T25 flasks coated with 0.1% gelatin, 10 μ/ml fibronectin and 30 μ/ml bovine collagen, suspended in mouse lung endothelial cell culture (MLEC) media and incubated at 37° C., 5% CO2. Cells were washed 3 or 4 times in PBS the next day to remove excess red blood cells and other cell-debris and growing medium applied. […]
# RNA-Seq was performed by Barts and the London Genome Centre on the Illumina NextSeq 500 platform, generating on average ˜15-17 million paired-end reads of 76 bp in length per sample. After quality check using FastQC, raw reads were mapped to the mouse genome (mm10, Genome Reference Consortium GRCm38) in the strand-specific mode using HISAT2 (65). Number of uniquely aligned reads (q>10) to the exonic region of each gene were counted using HTSeq (66) based on the GenCode annotation version M16 (Ensembl v91). Only genes that achieved at least one read count per million reads (cpm) in at least four samples (i.e., number of samples per group) were kept. Conditional quantile normalisation (cqn) was then performed accounting for gene length and GC content, and a log2 transformed reads per kilobase of transcript per million mapped reads RPKM expression matrix was subsequently generated. […]
structure (smiles),measurement,setting,value
"CC(C)[C@H]1C(=O)N[C@@H](CCCN=C(N)N)C(=O)NCC(=O)N[C@@H](CC(=O)O)C(=O)N[C@H](Cc2ccccc2)C(=O)N1C [Cilengitide, c(f*VRGD)]",mean arterial blood pressure (MABP),[1],not affected
same,concordantly differentially expressed genes,[2]; 24 h and 48 h ldCil treatment vs control,54 genes
same,"expression of proangiogenic or cardioprotective regulators (Csf2rb, Eln, Nov, CCL7, Mt2, Socs2, Fgf23, Slc30a1, Col6a3, Mt1, Ggt5, Adam8)",[2]; both 24 h and 48 h,differentially upregulated
same,"gene sets involved in mitosis, DNA repair and cell cycle (enrichment analysis)",[2]; both timepoints,significant increases
